Assay results published in patent US20110263569A1, “RYANODINE CHANNEL BINDERS AND USES THEREOF” (President and Fellows of Harvard College, priority 2007, published 2011).

Each molecule was assayed against T1, calstabin2 (FKBP12.6) binding to PKA-phosphorylated cardiac sarcoplasmic reticulum (CSR) (Homo sapiens, UniProt Q92736) (assay: Calstabin 2 (FKBP12.6) Assay). Details: 250 nM calstabin2, approximately 20 μg PKA-phosphorylated CSR, room temperature 30 minutes, immunoblot detection of calstabin2 binding.
T1 construct: from tissue
Procedure: PKA-phosphorylated cardiac sarcoplasmic reticulum (CSR) (approximately 20 μg) is incubated with 250 nM calstabin2 (FKBP12.6) in 100 μl binding buffer (10 mM imidazole, 300 mM sucrose, pH 7.4) with a known concentration of the test compound. Calstabin2 is added as the last reagent in the reaction mixture. The binding is performed at room temperature for 30 minutes. After the binding reaction, the mixture is centrifuged for 10 minutes at 100,000 xg. The resulting pellet is washed 4 times in binding buffer. After each wash, the tubes are centrifuged at 100,000 xg for 10 minutes. After the final wash, the supernatant is aspirated off 20 μl of 2×SDS-PAGE loading buffer is added to each pellet, and the pellet is resuspended. The mixture is heated to 90° C. for 4 minutes, and the proteins are analysed by 15% SDS-PAGE. Calstabin2 binding was detected with an αFKBP (1:2000) primary antibody and an IR-labeled anti-rabbit IgG from LiCor Biosciences as the secondary antibody. The blot was developed with a LiCor Odyssey system.

T1 sequence (Q92736 whole entry): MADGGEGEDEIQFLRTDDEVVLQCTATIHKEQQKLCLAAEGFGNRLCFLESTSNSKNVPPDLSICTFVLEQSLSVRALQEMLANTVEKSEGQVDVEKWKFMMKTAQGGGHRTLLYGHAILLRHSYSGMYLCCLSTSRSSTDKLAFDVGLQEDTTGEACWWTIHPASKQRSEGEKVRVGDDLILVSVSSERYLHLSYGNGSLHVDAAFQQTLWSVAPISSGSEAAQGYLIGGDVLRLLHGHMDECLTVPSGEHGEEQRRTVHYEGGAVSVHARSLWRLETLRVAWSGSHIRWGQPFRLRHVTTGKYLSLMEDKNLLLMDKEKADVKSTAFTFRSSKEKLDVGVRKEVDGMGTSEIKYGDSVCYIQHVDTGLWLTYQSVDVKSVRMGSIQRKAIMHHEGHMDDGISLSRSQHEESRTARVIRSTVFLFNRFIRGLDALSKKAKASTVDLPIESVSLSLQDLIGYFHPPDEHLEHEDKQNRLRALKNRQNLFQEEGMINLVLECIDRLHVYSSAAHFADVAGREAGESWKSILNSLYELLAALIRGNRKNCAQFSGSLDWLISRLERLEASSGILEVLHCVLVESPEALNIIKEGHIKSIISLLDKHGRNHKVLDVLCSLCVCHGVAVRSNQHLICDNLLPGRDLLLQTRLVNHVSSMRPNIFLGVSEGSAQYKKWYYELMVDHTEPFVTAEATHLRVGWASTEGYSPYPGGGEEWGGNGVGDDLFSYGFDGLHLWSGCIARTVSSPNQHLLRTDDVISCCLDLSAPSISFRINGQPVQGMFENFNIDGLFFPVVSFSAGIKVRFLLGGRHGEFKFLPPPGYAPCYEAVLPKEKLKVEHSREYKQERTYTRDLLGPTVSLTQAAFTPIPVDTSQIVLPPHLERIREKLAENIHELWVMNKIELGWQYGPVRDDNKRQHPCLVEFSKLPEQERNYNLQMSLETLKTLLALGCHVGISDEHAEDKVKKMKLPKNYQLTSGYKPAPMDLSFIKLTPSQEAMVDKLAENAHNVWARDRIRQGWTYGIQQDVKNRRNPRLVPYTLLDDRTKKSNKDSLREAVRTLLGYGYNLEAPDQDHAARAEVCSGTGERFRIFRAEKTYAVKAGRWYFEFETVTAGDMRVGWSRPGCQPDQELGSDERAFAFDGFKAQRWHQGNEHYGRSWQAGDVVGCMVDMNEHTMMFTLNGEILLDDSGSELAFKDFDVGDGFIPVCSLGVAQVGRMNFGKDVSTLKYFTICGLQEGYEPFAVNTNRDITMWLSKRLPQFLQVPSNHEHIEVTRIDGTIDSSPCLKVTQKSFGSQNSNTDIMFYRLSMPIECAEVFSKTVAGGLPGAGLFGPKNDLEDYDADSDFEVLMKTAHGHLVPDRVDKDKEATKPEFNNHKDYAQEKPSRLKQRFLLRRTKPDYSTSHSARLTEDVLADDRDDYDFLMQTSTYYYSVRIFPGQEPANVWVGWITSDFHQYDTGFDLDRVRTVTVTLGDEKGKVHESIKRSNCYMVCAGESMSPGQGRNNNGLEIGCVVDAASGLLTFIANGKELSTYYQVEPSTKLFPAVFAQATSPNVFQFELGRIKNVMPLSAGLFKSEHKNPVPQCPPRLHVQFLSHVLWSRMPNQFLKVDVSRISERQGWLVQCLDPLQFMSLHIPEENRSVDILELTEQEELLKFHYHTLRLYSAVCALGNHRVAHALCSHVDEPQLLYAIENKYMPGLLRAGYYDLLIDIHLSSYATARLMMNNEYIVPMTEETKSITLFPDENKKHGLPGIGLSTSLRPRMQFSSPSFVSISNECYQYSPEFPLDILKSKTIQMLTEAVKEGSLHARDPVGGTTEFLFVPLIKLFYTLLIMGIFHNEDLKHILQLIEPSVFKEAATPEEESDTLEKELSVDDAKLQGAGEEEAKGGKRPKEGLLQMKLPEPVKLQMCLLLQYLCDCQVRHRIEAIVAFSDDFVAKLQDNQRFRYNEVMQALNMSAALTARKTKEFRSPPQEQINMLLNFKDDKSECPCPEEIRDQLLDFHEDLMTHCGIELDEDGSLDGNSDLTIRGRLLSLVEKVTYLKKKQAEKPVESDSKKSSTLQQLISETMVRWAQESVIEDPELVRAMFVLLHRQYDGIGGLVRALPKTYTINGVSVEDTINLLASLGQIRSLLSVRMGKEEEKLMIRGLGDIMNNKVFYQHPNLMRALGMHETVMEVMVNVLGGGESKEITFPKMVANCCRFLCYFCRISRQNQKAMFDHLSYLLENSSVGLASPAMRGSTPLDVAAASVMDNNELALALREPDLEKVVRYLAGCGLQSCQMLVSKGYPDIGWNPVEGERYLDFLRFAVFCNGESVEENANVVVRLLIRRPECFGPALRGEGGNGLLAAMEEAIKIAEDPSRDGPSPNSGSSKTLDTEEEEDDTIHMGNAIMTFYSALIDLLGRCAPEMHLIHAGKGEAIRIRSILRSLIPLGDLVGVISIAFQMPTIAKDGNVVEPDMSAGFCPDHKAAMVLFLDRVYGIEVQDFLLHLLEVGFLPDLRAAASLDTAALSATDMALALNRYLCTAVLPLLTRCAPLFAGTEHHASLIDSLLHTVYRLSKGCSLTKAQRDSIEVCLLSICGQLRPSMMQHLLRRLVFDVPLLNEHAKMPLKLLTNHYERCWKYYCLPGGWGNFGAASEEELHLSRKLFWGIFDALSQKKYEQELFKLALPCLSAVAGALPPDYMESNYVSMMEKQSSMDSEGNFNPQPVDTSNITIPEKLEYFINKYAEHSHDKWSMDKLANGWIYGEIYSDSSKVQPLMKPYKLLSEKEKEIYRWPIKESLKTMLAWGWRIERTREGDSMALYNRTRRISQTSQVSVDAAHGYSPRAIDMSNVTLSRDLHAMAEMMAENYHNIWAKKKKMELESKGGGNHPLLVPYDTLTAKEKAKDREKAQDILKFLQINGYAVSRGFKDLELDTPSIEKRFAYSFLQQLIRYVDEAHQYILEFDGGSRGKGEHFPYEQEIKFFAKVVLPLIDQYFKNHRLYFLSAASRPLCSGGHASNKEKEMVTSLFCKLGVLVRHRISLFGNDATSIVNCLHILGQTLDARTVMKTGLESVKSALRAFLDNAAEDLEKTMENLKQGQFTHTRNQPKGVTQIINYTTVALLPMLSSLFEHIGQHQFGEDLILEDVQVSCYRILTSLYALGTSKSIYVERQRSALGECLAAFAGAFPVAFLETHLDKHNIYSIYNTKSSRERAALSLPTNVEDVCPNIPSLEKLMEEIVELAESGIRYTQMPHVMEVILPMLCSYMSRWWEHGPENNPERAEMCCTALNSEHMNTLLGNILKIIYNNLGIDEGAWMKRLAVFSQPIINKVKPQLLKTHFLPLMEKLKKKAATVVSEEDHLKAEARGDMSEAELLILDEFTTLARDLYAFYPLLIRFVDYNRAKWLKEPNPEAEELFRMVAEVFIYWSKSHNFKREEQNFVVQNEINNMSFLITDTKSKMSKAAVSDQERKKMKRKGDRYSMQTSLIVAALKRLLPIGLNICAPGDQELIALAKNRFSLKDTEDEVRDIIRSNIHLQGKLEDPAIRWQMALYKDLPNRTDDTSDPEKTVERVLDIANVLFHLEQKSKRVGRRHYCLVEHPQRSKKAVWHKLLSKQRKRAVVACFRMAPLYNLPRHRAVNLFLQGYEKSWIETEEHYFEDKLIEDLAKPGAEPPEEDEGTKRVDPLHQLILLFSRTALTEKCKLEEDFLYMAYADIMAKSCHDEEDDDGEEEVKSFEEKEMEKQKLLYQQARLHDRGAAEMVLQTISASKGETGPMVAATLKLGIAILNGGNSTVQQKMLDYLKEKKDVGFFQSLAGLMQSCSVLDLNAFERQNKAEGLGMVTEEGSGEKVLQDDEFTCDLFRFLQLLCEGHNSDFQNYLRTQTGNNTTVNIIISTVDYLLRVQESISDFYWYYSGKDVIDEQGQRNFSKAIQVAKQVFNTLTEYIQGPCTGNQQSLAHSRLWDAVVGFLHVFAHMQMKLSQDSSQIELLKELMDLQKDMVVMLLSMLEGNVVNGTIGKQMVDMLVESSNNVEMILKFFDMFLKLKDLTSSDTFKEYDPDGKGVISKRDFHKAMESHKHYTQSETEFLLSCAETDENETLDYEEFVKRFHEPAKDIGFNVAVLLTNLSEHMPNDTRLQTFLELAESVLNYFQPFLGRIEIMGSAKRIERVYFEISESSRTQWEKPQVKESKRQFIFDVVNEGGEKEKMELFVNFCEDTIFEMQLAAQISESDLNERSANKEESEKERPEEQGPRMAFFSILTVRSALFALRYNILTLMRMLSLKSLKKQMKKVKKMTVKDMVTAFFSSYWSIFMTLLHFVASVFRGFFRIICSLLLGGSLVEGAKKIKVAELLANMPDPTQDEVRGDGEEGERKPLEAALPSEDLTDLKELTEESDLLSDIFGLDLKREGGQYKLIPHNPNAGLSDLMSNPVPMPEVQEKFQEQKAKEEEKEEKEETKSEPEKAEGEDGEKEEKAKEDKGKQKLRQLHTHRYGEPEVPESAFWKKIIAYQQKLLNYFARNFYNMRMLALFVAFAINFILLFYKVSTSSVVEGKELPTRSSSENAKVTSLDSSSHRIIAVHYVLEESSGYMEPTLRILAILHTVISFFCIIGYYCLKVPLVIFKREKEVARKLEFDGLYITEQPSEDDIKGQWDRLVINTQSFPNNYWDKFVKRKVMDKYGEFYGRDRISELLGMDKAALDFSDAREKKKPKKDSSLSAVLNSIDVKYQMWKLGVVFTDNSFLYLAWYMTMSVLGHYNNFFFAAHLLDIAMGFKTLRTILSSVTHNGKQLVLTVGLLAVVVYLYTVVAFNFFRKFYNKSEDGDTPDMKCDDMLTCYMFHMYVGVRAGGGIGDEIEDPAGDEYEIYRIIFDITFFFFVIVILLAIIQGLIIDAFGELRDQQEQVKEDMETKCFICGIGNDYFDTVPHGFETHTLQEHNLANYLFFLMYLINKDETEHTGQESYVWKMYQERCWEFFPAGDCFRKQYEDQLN
T1 sequence (P68106 whole entry partner): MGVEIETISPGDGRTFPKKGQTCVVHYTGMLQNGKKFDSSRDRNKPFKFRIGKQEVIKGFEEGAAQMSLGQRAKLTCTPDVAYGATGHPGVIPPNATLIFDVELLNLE

Row | SMILES | Binding
1 | COc1ccc2c(c1)CN(C(=O)CCN1CCC(Cc3ccccc3)CC1)C[C@@H](C)O2 | 100 nM
2 | COc1ccc2c(c1)CN(C(=O)CCN1CCC(Cc3ccccc3)CC1)C[C@H](C)O2 | 100 nM
3 | COc1ccc2c(c1)CN(C(=O)CCN1CCC(Cc3ccccc3)CC1)C(C)CS2 (stereo not drawn) | 100 nM
4 | COc1ccc2c(c1)CN(C(=O)CCN1CCC(Cc3ccccc3)CC1)C[C@@H](C)S2 | 100 nM
5 | COc1ccc2c(c1)CN(C(=O)CCN1CCC(Cc3ccccc3)CC1)[C@@H](C)[C@@H](C)S2 | 100 nM
6 | COc1cccc(OC)c1CN(C)C(=O)CCN1CCC(Cc2ccccc2)CC1 | 1000 nM
7 | COc1ccc2c(c1)CN(C(=O)CCN1CCC(Cc3ccccc3)CC1)[C@H](C)[C@H](C)S2 | 1000 nM
8 | COc1ccc2c(c1)C/C(=C\CCN1CCC(Cc3ccccc3)CC1)CCS2 | 1000 nM
9 | COc1ccc2c(c1)C/C(=C/CCN1CCC(Cc3ccccc3)CC1)CCS2 | 100 nM
